The text below walks through data of patent publication US20220104468A1, “MODULATION OF LC3-ASSOCIATED ENDOCYTOSIS PATHWAY AND GENETICALLY MODIFIED NON-HUMAN ANIMALS AS A MODEL OF NEUROINFLAMMATION AND NEURODEGENERATION” (St. Jude Children's Research Hospital, priority 2019, published 2022).

Test [1] has as its system BV2 murine microglial cells expressing GFP-LC3. In words: LC3 recruitment/co-localization to β-amyloid in GFP-LC3 BV2 cells (imaging). It is filed as cell-based. Conditions: parental BV2 GFP-LC3 cells, TAMRA-labeled oligomeric peptide. The method, then:
(§1) In an attempt to delineate the discrepancies in β-amyloid accumulation in the animal models presented above and the role of the autophagy proteins in this process, BV2 murine microglial cells expressing GFP-LC3 that are deficient in FIP200, ATG5, or Rubicon were engineered using CRISPR/Cas9 (FIG. 3A). Cells were cultured in the presence of neurotoxic oligomeric AP 1-42 labeled with TAMRA.
(§2) Both labeled and unlabeled Ab1-42 was purchased in lyophilized form and resuspended according to the manufacturer's recommendation at a concentration of 100 μM (Anaspec). In brief, Ab1-42 was resuspended to 5 mM in DMSO and then adjusted to 100 μM using DMEM/F12 culture media. Oligomerization was allowed to occur for 24h at 4° C. prior to addition to cells at 1 μM unless otherwise indicated.
For all non-live cell-based imaging, cells were cultured in 4-well chamber slides (Ibidi) and were fixed and stained as indicated. In brief, cells were fixed with 4% PFA for 10 min followed by permeabilization using 200 μg/ml digitonin for 10 min. Cells were blocked in 0.5% BSA in PBS for 30 min prior to staining with primary antibodies overnight at 4° C. Cells were then washed 3× in PBS and then stained with the indicated fluorescent secondary antibodies for 30 min. Cells were subsequently washed 3× with PBS and post-fixed in 1% PFA for 10 min prior to imaging. […]

The subject of the next test is BV2 cells. In words: Pro-inflammatory gene expression by qPCR after oligomeric Aβ1-42. Conditions: BV2 cells treated with Aβ1-42. It counts as cell-based, murine. How it is done: Similarly, the effects of Aβ1-42 on microglia were examined. As expected, BV2 cells treated with Aβ1-42 had elevated pro-inflammatory gene expression, including IL-1β, IL-6, CCL5, and TNFα as reported (Pan et al. (2011) Mol Neurodegener 6:45) and consistent with human disease.
as §2
Total RNA was isolated from cells or tissue using the RNeasy Kit (Qiagen) according to the manufacturer's instructions. First-strand synthesis was performed using M-MLV reverse transcriptase (Invitrogen). Realtime PCR was performed using SYBR GREEN PCR master mix (Applied Biosystems) in an Applied Biosystems 7900HT thermocycler using SyBr Green detection protocol as outlined by the manufacturer using the following PCR conditions: 50° C. for 2 min, 95° C. for 10 min, and 40 cycles of 95° C. for 15s and 60° C. for 1 min. mRNA was normalized to actin allowing for comparison of mRNA levels. Please see key reagents table for qPCR primer sequences.
In general terms: Quantitative PCR measures a nucleic acid by following its amplification.

The test system of test [2] is Atg16L^ΔWD mice. In words: Novel object recognition (NOR) after MCC950 treatment. It counts as in vivo, mouse. The note with it: MCC950 8 weeks, trending towards wild-type littermates. How it is done:
Novel object recognition (NOR) was performed in an open-field box (40 cm×40 cm). Mice were allowed to acclimate to the testing room for 48h. For habituation, mice were allowed to explore the open-field for 15 min per day for two days. Mice were then exposed to two identical objects for 10 min on the day of testing. 2h later a novel object was introduced, and mice were allowed to explore for 5 min during the test phase. The time spent exploring each object was quantified manually. Novel object preference (%) and the discrimination index ((time with novel)/(novel+familiar)*100) were calculated for each mouse.
(§3) Mice with established disease were treated for 8-weeks with either a vehicle (placebo) control or MCC950 (Invivogen) as reported previously (Gordon et al. 2018 Science Translational Medicine 10(465)). In brief, MCC950 was suspended in 100% DMSO and titrated to a working dose using sterile water. The final concentration of DMSO in the injection was <1%. Matching solution without MCC950 was used as the vehicle (placebo). Mice were injected every 3 days for 8-weeks at a dose of 10 mg/kg via intraperitoneal injection.

The subject of test [3] is Atg16L^ΔWD mice. The test can be described thus: Brain pathology by immunofluorescence/TUNEL after 8 weeks of MCC950 in mice with established disease. It is filed as in vivo, mouse. Conditions: MCC950 10 mg/kg i.p. every 3 days for 8 weeks. How it is done: Inflammasome inhibition has recently been proposed as putative therapeutic approach that reduces neuroinflammation and Tau phosphorylation (PMID: 31748742). Thus, Atg16L WD-domain deficient mice (Atg16L^ΔWD mice) with established disease (starting at 20 months of age) and behavioral impairment, as measured by both impaired spontaneous alternation and NOR (FIGS. 19A-19B), were treated with the brain-penetrant inflammasome inhibitor MCC950. […] However, no difference in Aβ deposition was observed between placebo and MCC950-treated mice (FIG. 19E).
Atg16^ΔWD mice were generated by deletion of the WD-domain of Atg16L, as previously described (Rai et al 2018(online) Autophagy 15(4)599-612). In brief, 2 stop codons were inserted into exon 6 of murine Atg16L1 immediately after glutamate E230 to preserve binding sites for WIPI2 (required for canonical autophagy) but prevent translation of the linker and WD-domain. Mice were produced and maintained on a mixed 129, C57BL/6 background. Unless otherwise noted, all experiments were performed on mixed sex cohorts at 2 years of age. Mice treated with MCC950 or placebo were mixed sex cohorts, 20 months of age at time of treatment onset and were treated for 8-weeks. The genetic backgrounds of mice used were assessed at the DartMouse™ Speed Congenic Core Facility at the Geisel School of Medicine at Dartmouth. DartMouse uses the Illumina, Inc. (San Diego, Calif.) Infinium Genotyping Assay to interrogate a custom panel of 5307 SNPs spread throughout the genome. The raw SNP data was analyzed using DartMouse's SNaP-Map™ and Map-Synth™ software, allowing the determination for each mouse of the genetic background at each SNP location. Background strain percentage was subsequently compared against markers of disease pathology to evaluate any influence stemming from variations in background (FIG. 18).
For preparation of brain tissue see “Preparation of brain samples” below. Slides were subjected to antigen retrieval using 1% sodium citrate boiling for 20 min followed by 3× PBS washing. Slides were blocked in 0.5% BSA in PBS. Antibody staining was carried out as described above. Following final washing, slides were mounted using ProLong Diamond Anti-Fade mounting media with DAPI.
Image analysis for relative Aβ, Iba1, and phospho-Tau staining was achieved by quantifying the mean fluorescent intensity (MFI) of either Iba1 or phospho-Tau signal using NIS-elements. Analysis and quantification of microglial morphology was achieved using Slidebook 6 software. Morphological state was determined by measuring cell diameter following 3D reconstruction and confirmed by manual counting/analysis of microglia shape per defined field across multiple areas of each slide. […]

Test [4] concerns Atg16L^ΔWD mice. In words: Y-maze spontaneous alternation after MCC950 treatment. It counts as in vivo, mouse. The note with it: MCC950 8 weeks, trending towards wild-type littermates. The method, then: For Y-maze spontaneous alternation analysis, mice were housed in the testing room and allowed to acclimate for 48h. The Y-maze test consisted of a single 5 min trial per mouse. Spontaneous Alternation [%] was defined as consecutive entries in 3 different arms (ABC), divided by the number of possible alternations (total arm entries minus 2). Mice with less than 5 arm entries during the 5 min trial were excluded from the analysis.
as §3

Test [5] relates to BV2 microglia. In words: Membrane-associated GFP-LC3 by flow cytometry. It is filed as cell-based, murine. The note with it: parental BV2 microglia, latrunculin A versus vehicle. How it is done:
as §1
To quantify membrane association of GFP-LC3, cells were harvested and permeabilized using 200 μg/ml digitonin for 15 min on ice. Cytosolic GFP-LC3 was removed by washing cells 5× in cold PBS. Cells were then resuspended in 0.5% BSA in PBS for analysis by flow cytometry as described above.
(§4) To delineate between phagocytosis and endocytosis, cells were treated as indicated with the phagocytic inhibitor latrunculin A. Cells were pre-treated for 1 h prior to the addition of target substrates. The following control substrates were used, zymosan (phagocytosis) and dextran (endocytosis), both were fluorescently labeled as indicated. Co-incubation with specific substrates was carried out at 37° C. for 3h. Cells were either fixed for imaging or analyzed by flow cytometry as described above respectively.

The test system of test [6] is BV2 microglia. The test can be described thus: Phagocytosis versus endocytosis substrate uptake with latrunculin A (flow cytometry, imaging). It is filed as cell-based, murine. Conditions: 50 μM latrunculin A. How it is done:
as §1
For all uptake assays, cells were analyzed without fixation. For membrane-associated GFP-LC3 analysis, cells were processed as described below. For brain infiltrating monocytes, cells were isolated as described using the Neural Tissue Dissociation Kit (Miltenyi). Primary cells were fixed, permeabilized, and stained using the Cyto Fix/Perm Staining Kit (BD Bioscience) and the indicated, conjugated primary antibodies. For all experiments, cells were analyzed using a Sony SP6800 Spectral Analyzer (Sony). All analyses were performed using FlowJo v10.4 (Tree Star). Fluorescent compensation was performed using BD compensation beads (BD Bioscience).
as §4

For “Aβ1-42: neurotoxic oligomeric β-amyloid 1-42 peptide, labeled or unlabeled (Anaspec)”, the “co-localization/recruitment of LC3 to the β-amyloid” value in test [1] is given as “induced rapid co-localization”. Also, in the test on BV2 cells, the “pro-inflammatory gene expression, including IL-1β, IL-6, CCL5, and TNFα” value is reported as “elevated”.
Consider `CC(C)(O)c1coc(S(=O)(=O)NC(=O)Nc2c3c(cc4c2CCC4)CCC3)c1` [MCC950], for which the “behavioral and memory capacity in NOR (novel object preference, discrimination index)” value with Atg16L^ΔWD mice [2] is on record as “restoration”. Besides, in the test on Atg16L^ΔWD mice [3] (20 months at onset, compared to placebo), the “microglial activation (Iba1 staining, hippocampus)” value is on record as “reduced”. In addition, in the test with Atg16L^ΔWD mice [3] (versus placebo), the “Aβ deposition (hippocampus)” value was “no difference”; the “Tau phosphorylation (S199/202, CA3-field)” value is listed as “massive reduction”; the “neurodegeneration as measured by TUNEL staining (CA3-field)” value was “massive reduction”. Further, the “behavioral and memory capacity in the Y-maze (spontaneous alternation)” value with Atg16L^ΔWD mice [4] was “restoration”.
As for `C/C1=C/C(=O)O[C@@H]2C[C@@H](CC[C@H](C)/C=C\C=C\CC1)O[C@@](O)([C@@H]1CSC(=O)N1)C2` [latrunculin A], in the test with BV2 microglia [5], the “association of LC3 to endosomal membranes in response to β-amyloid” value is reported as “did not alter”. Further, in the test on BV2 microglia [6] (dextran 500 ng/ml), the “uptake of the endocytic substrate dextran” value is on record as “had no effect”. Moreover, in the test with BV2 microglia [6] (zymosan 4:1 particle:cell), the “internalization of the phagocytic substrate zymosan” value is “prevented the internalization”. Besides, in the test on BV2 microglia [6] (β-amyloid 1 μM), the “uptake of β-amyloid” value is “had no effect”.
